Key:
[1] = USGS estimate; cited from earlier work
[2] = cited from earlier work
[3] = batch mode homogeneous catalytic reductive dechlorination of endosulfan in contaminated water, titanium (III) citrate as bulk electron donor; details: after 72 hours of reaction, about 0.010 mM catalyst, 0.32 ppm endosulfan initially, room temperature
Experimental: 40 milliliter (0.04 liter) glass vials (usually filled with about 25 milliliters of reaction solution), fitted with Teflon®-clear silicon sealing cups, were used at room temperature (between about 20° C. and about 25° C.) and atmospheric pressure. Contents of each glass vial (batch reactor) were mixed by securing the glass vial onto an orbital shaker (model TS-600, from MRC, Israel) having automatic (mixing) speed control. Multiple replicates of each glass vial (batch reactor) filled with reaction solution were prepared at the beginning of an experiment.
The glass vial batch mode reaction systems were prepared under oxygen free atmosphere conditions, using an anaerobic chamber (Coy Laboratory Products, MI, USA) containing an oxygen free atmosphere composed of a mixture of nitrogen [N2] gas and hydrogen [H2] gas, having a 95/5 molar or partial pressure ratio.
GC/MS was used for monitoring concentration over time, of endosulfan (as α and β isomers) in the endosulfan contaminated water, during the batch mode homogeneous catalytic reactions.
The extracted organic phase was then transferred to a gas chromatograph vial and analyzed for the presence of the endosulfan (as α and β isomers) contaminant.
The reactions were performed at room temperature (between about 20° C. and about 25° C.) and atmospheric pressure.
A volume of 25 milliliter (0.025 liter) was taken from the appropriate stock solution of water contaminated with endosulfan and added to the empty 40 milliliter glass vial (batch reactor), for providing an initial concentration of 0.32 mg endosulfan per liter contaminated water, or 0.32 ppm endosulfan in the contaminated water. This procedure was repeated, for preparing at least two glass vials (batch reactors) for each experiment.
Reducing conditions were not naturally prevalent in the endosulfan contaminated water in the glass vials (batch reactors) for effectively enabling the phenomena, mechanisms, and processes of the electron transfer mediated (homogeneous) catalytic reductive dehalogenation of the endosulfan contaminant in the contaminated water. Thus, reducing conditions in the endosulfan contaminated water were anthropogenically produced by exposing the endosulfan contaminated water to titanium (III) citrate [Ti(OC(CH2COOH)2COOH] as the bulk electron donor or reducing agent, immediately before exposing the endosulfan contaminated water to the catalytically effective amount of each respective above stated metalloporphyrin complex, or metallocorrin complex, electron transfer mediator (homogeneous catalyst).
The pH of the solution was then adjusted to the desired value (e.g., 9.0) by adding small amounts of NaOH concentrated solution to each glass vial (batch reactor).
Then, an appropriate volume was taken from each respective above stated 2 mM metalloporphyrin complex, or metallocorrin complex, stock solution, and added to each glass vial (batch reactor) containing endosulfan contaminated water and titanium (III) citrate, for providing a concentration of about 0.010 mM metalloporphyrin complex, or metallocorrin complex, electron transfer mediator (homogeneous) catalyst in the endosulfan contaminated water. At this point, the glass vials were sealed, and transferred to the orbital shaker.
The contents, i.e., the endosulfan contaminated water containing the titanium (III) citrate as bulk electron donor or reducing agent and the metalloporphyrin complex, or metallocorrin complex, electron transfer mediator (homogeneous) catalyst, in each glass vial (batch reactor), were continuously mixed by securing each glass vial onto the orbital shaker set at a mixing speed of 150 rpm during the entire extent of time or duration of reaction.
For each metalloporphyrin complex, or metallocorrin complex, GC/MS analytical samples were prepared after 72 hours from each of at least two glass vials containing the endosulfan contaminated water of the batch mode homogeneous catalytic reductive dechlorination reaction.

[4] = partitioning (adsorption and desorption) of electron transfer mediators on/off geological matter; type: physicochemical; details: Kaolinite clay, room temperature; for Adsorption (%) of (ETM) after 10 days: aqueous mixture; for Desorption (%) of (ETM) after 10 days: fresh water replaced
Experimental: Kaolinite clay, ‘purum, natural’ grade, was obtained from Fluka.
(§1) 40 milliliter (ml) (0.04 liter) glass vials (filled with 10 milliliters, of solution), were used at room temperature (between about 20° C. and about 25° C.) and atmospheric pressure, as the vessel or container, for containing the aqueous mixtures of the (partitioning) electron transfer mediator (ETM)—geological matter (soil or clay).
(§2) Ultraviolet and visible (UV/VIS) absorption spectrometry was used for measuring and determining the quantity (concentration), after a time period of 10 days each of (ETM) adsorption and desorption, of each (partitioning) electron transfer mediator (ETM) in the aqueous (liquid) phase of each respective electron transfer mediator (ETM)—geological matter (soil or clay) aqueous mixture. Multiple samples of the aqueous (liquid) phase of each mixture were taken from each respective glass vial (partitioning vessel).
(§3) The UV/VIS absorption spectrometer was a Varian, Cary 100, operative according to double beam analysis. Concentrations of the [TBSP-Ni], hematoporphyrin-Cobalt, and vitamin B12, electron transfer mediators (ETMs), were measured at absorption wavelengths of 527 nanometers (nm), 413 nanometers (nm), and 548 nanometers (nm), respectively.
(§4) The electron transfer mediator (ETM)—geological matter (soil or clay) partitioning experiments were performed at room temperature (between about 20° C. and about 25° C.) and atmospheric pressure.
(§5) Each prepared 2 mM metalloporphyrin complex, or metallocorrin complex, (ETM) aqueous stock solution, was diluted by a ratio of 1/10 or 1/100 with the distilled deionized filtered water, for forming respective diluted (ETM) stock solutions.
(§6) For each diluted (ETM) stock solution, corresponding to each respective electron transfer mediator (ETM), an amount of each type of geological matter, i.e., Bet Dagan soil, kaolinite clay, and montmorillonite clay, was weighed, and added to a separate glass vial (partitioning vessel). (ETM) Control solutions remained absent of any geological matter. […]
(§7) The ‘adsorption mode’ analytical samples were then analyzed by the above described (UV/VIS) absorption spectrometry procedure, for determining the quantity (concentration) of the [TBSP-Ni], hematoporphyrin-Cobalt, and vitamin B12, electron transfer mediator (ETM), present (i.e., remaining) in the aqueous (liquid) phase of each respective electron transfer mediator (ETM)—geological matter (soil or clay) aqueous mixture. Such analysis and determination corresponded to quantitatively measuring and determining the extent that the respective electron transfer mediator (ETM) left the aqueous (liquid) phase and ‘adsorbed’ onto the respective geological matter (soil or clay) (solid) phase. The (ETM) Control solutions were similarly analyzed. […]

[5] = as above; type: physicochemical; details: Montmorillonite clay, room temperature; for Adsorption (%) of (ETM) after 10 days: aqueous mixture; for Desorption (%) of (ETM) after 10 days: fresh water replaced
Experimental: Montmorillonite clay, 10-12% impurities, was obtained from Fluka.
as §1, §2, §3, §4, §5, §6, §7

[6] = as above; type: physicochemical; details: Bet Dagan soil, room temperature; for Adsorption (%) of (ETM) after 10 days: aqueous mixture; for Desorption (%) of (ETM) after 10 days: fresh water replaced
Experimental: Bet Dagan soil was obtained from the site of the Bet Dagan Agricultural Research Organization campus, Bet Dagan, Israel. The Bet Dagan soil was sieved to a size of 60 mesh, and maintained in a dry air environment until use.
as §1, §2, §3, §4, §5, §6
The ‘adsorption mode’ analytical samples were then analyzed by the above described (UV/VIS) absorption spectrometry procedure, for determining the quantity (concentration) of the [TBSP-Ni], hematoporphyrin-Cobalt, and vitamin B12, electron transfer mediator (ETM), present (i.e., remaining) in the aqueous (liquid) phase of each respective electron transfer mediator (ETM)—geological matter (soil or clay) aqueous mixture. […]

Compound: CCNc1nc(Cl)nc(NC(C)C)n1 [Atrazine, atrazine]
- persistence in deep lakes [1]: exceed 10 years

Compound: Clc1ccc(C(c2ccc(Cl)cc2)C(Cl)(Cl)Cl)cc1 [DDT, DichloroDiphenylTrichloroethane]
- partition coefficient, Kd, relative to aldicarb ([2]; ratio DDT / aldicarb): roughly 20,000 times
- partition coefficient, Kd, relative to atrazine ([2]; ratio DDT / atrazine): ~1,500 times

Compound: C=Cc1c(C)c2cc3[nH]c(cc4nc(cc5nc(cc1[nH]2)C(C)=C5CCC(=O)[O-])C(CCC(=O)[O-])=C4C)c(C)c3C=C.[Co+2] [Protoporphyrin IX-Co, protoporphyrin IX-Cobalt]
- Normalized Endosulfan Concentration (%) α isomer [3]: 31.5%
- Normalized Endosulfan Concentration (%) β isomer [3]: 37.8%

Compound: O=S(=O)(O)c1ccc(-c2c3nc(c(-c4ccc(S(=O)(=O)O)cc4)c4ccc([nH]4)c(-c4ccc(S(=O)(=O)O)cc4)c4nc(c(-c5ccc(S(=O)(=O)O)cc5)c5ccc2[nH]5)C=C4)C=C3)cc1.[Co] [[TBSP—Co], 4,4′,4″,4′″-(porphine-5,10,15,20-tetrayl)tetrakis(benzenesulfonic acid)-Cobalt]
- Normalized Endosulfan Concentration (%) α isomer [3]: 2.8%
- Normalized Endosulfan Concentration (%) β isomer [3]: 0.0%

Compound: O=S(=O)(O)c1ccc(-c2c3nc(c(-c4ccc(S(=O)(=O)O)cc4)c4ccc([nH]4)c(-c4ccc(S(=O)(=O)O)cc4)c4nc(c(-c5ccc(S(=O)(=O)O)cc5)c5ccc2[nH]5)C=C4)C=C3)cc1.[Ni] [[TBSP—Ni], 4,4′,4″,4′″-(porphine-5,10,15,20-tetrayl)tetrakis(benzenesulfonic acid)-Nickel]
- Normalized Endosulfan Concentration (%) α isomer [3]: 1.3%
- Normalized Endosulfan Concentration (%) β isomer [3]: 0.0%
- Adsorption (%) of (ETM) after 10 days [4]: 59.44 ± 1.21%
- Desorption (%) of (ETM) after 10 days [4]: 40.17 ± 5.51%
- Adsorption (%) of (ETM) after 10 days [5]: 95.50 ± 0.44%
- Desorption (%) of (ETM) after 10 days [5]: 8.57 ± 1.28%
- Adsorption (%) of (ETM) after 10 days [6]: 71.68 ± 2.31%
- Desorption (%) of (ETM) after 10 days [6]: 21.22 ± 2.55%

Compound: C[n+]1ccc(-c2c3nc(c(-c4cc[n+](C)cc4)c4ccc([n-]4)c(-c4cc[n+](C)cc4)c4nc(c(-c5cc[n+](C)cc5)c5ccc2[n-]5)C=C4)C=C3)cc1.[Co+2] [[TMPyP—Co], tetramethylpyridilporphyrin-Cobalt [5,10,15,20-tetrakis(1-methyl-4-pyridinio)-porphine-Cobalt]]
- Normalized Endosulfan Concentration (%) α isomer [3]: 1.2%
- Normalized Endosulfan Concentration (%) β isomer [3]: 0.0%

Compound: C[n+]1ccc(-c2c3nc(c(-c4cc[n+](C)cc4)c4ccc([n-]4)c(-c4cc[n+](C)cc4)c4nc(c(-c5cc[n+](C)cc5)c5ccc2[n-]5)C=C4)C=C3)cc1.[Fe+2] [[TMPyP—Fe], tetramethylpyridilporphyrin-Iron [5,10,15,20-tetrakis(1-methyl-4-pyridinio)-porphine-Iron]]
- Normalized Endosulfan Concentration (%) α isomer [3]: 40.7%
- Normalized Endosulfan Concentration (%) β isomer [3]: 66.7%

Compound: C[n+]1ccc(-c2c3nc(c(-c4cc[n+](C)cc4)c4ccc([n-]4)c(-c4cc[n+](C)cc4)c4nc(c(-c5cc[n+](C)cc5)c5ccc2[n-]5)C=C4)C=C3)cc1.[Ni+2] [[TMPyP—Ni], tetramethylpyridilporphyrin-Nickel [5,10,15,20-tetrakis(1-methyl-4-pyridinio)-porphine-Nickel]]
- Normalized Endosulfan Concentration (%) α isomer [3]: 0.0%
- Normalized Endosulfan Concentration (%) β isomer [3]: 0.0%

Compound: Oc1ccc(-c2c3nc(c(-c4ccc(O)cc4)c4ccc([n-]4)c(-c4ccc(O)cc4)c4nc(c(-c5ccc(O)cc5)c5ccc2[n-]5)C=C4)C=C3)cc1.[Co+2] [[TP(OH)P—Co], tetrahydroxyphenylporphyrine-Cobalt [5,10,15,20-tetrakis(4-hydroxyphenyl)-21H,23H-porphine-Cobalt]]
- Normalized Endosulfan Concentration (%) α isomer [3]: 8.3%
- Normalized Endosulfan Concentration (%) β isomer [3]: 12.3%

Compound: Oc1ccc(-c2c3nc(c(-c4ccc(O)cc4)c4ccc([n-]4)c(-c4ccc(O)cc4)c4nc(c(-c5ccc(O)cc5)c5ccc2[n-]5)C=C4)C=C3)cc1.[Ni+2] [[TP(OH)P—Ni], tetrahydroxyphenylporphyrine-Nickel [5,10,15,20-tetrakis(4-hydroxyphenyl)-21H,23H-porphine-Nickel]]
- Normalized Endosulfan Concentration (%) α isomer [3]: 8.3%
- Normalized Endosulfan Concentration (%) β isomer [3]: 9.3%

Compound: hematoporphyrin-Cobalt
- Normalized Endosulfan Concentration (%) α isomer [3]: 9.4%
- Normalized Endosulfan Concentration (%) β isomer [3]: 9.7%
- Adsorption (%) of (ETM) after 10 days [4]: 45.28 ± 1.85%
- Desorption (%) of (ETM) after 10 days [4]: 12.65 ± 0.67%
- Adsorption (%) of (ETM) after 10 days [5]: 100%
- Desorption (%) of (ETM) after 10 days [5]: 0%
- Adsorption (%) of (ETM) after 10 days [6]: 12.80 ± 1.2%
- Desorption (%) of (ETM) after 10 days [6]: 5.87 ± 0.32%

From patent US8580711B2, “Decreasing or preventing sub-surface geological matter contamination by agrochemicals” (Yeda Research and Development Co. Ltd., priority 2005, dated 2013)
